pIC50: −log10 of the molar value.
Legend:
[1] = Selectivity index, ratio of IC50 for Oryza sativa L. seeds to IC50 for Echinochloa crus-galli L. seeds
Oryza sativa = assay: Phytotoxic activity against Oryza sativa (rice) seeds assessed as inhibition of root growth at 25 degC measured after 7 days by crop selectivity assay; type: organism-based; details: L., 168 h
Echinochloa crus-galli [2] = assay: Herbicidal activity against Echinochloa crus-galli (barnyard grass) seeds assessed as inhibition of root growth at 25 degC measured after 5 days; type: functional, organism-based; details: 120 h
[3] = Phytotoxic activity against Oryza sativa (rice) seeds assessed as inhibition of root growth at 48 uM at 25 degC measured after 7 days by crop selectivity assay; type: organism-based, L.; details: read-out: GI
Echinochloa crus-galli [4] = assay: Herbicidal activity against Echinochloa crus-galli (barnyard grass) seeds assessed as inhibition of root growth at 48 uM at 25 degC measured after 5 days; type: functional; details: 120 h, read-out: GI
Echinochloa crus-galli [5] = assay: Ratio of propanil IC50 to compound IC50 for Echinochloa crus-galli (barnyard grass) seeds measured after 5 days; type: functional

SMILES | Ratio IC50 [1] | pIC50 (Oryza sativa) | pIC50 (Echinochloa crus-galli [2]) | also measured
O=C1COc2ccccc2N1O | 0.6 | 3.83 | 3.63 | 
CCCCC1Oc2ccccc2N(O)C1=O [2-Butyl-D-DIBOA] | 2.21 | 3.38 | 3.72 | 
CCOC(=O)C1(C)Oc2ccccc2N(O)C1=O [2-Ethoxycarbonyl-2-methyl-D-DIBOA] | 4.42 | 2.54 | 3.18 | 
CCOC(=O)C1Oc2ccccc2N(O)C1=O [2-Ethoxycarbonyl-D-DIBOA] | 5.03 | 2.84 | 3.54 | 
CCC1Oc2ccccc2N(O)C1=O [2-Ethyl-D-DIBOA] | 8.35 | 3.49 | 4.41 | inhibition at 168 h, 48 µM [3]: 20%; inhibition of growth at 48 µM (Echinochloa crus-galli [4]): 50%; Ratio IC50 (Echinochloa crus-galli [5]): 3
CCCCCCC1Oc2ccccc2N(O)C1=O [2-Hexyl-D-DIBOA] | 1.77 | 2.01 | 2.25 | 
CC1Oc2ccccc2N(O)C1=O [2-Methyl-D-DIBOA] | 1.62 | 3.32 | 3.53 | 
O=C1C(c2ccccc2)Oc2ccccc2N1O [2-Phenyl-D-DIBOA] | 2.96 | 3.22 | 3.69 | 
CCCC1Oc2ccccc2N(O)C1=O [2-Propyl-D-DIBOA] | 2.05 | 3.48 | 3.79 | 
CC(=O)ON1C(=O)COc2ccccc21 [ABOA] |  |  | 2.14 | 
CCCC(=O)ON1C(=O)COc2ccccc21 [BU-D-DIBOA] |  |  | 2.61 | 
CCCCCCCCCC(=O)ON1C(=O)COc2ccccc21 [DEC-D-DIBOA] |  |  | 3.97 | 
CCCCCCC(=O)ON1C(=O)COc2ccccc21 [HEPT-D-DIBOA] |  |  | 3.27 | 
CCCCCC(=O)ON1C(=O)COc2ccccc21 [HEX-D-DIBOA] |  |  | 2.92 | 
CCCCCCCCCCCC(=O)ON1C(=O)COc2ccccc21 [LAU-DIBOA] |  |  | 3.77 | 
CCCCCCCCCCCCCC(=O)ON1C(=O)COc2ccccc21 [MIR-D-DIBOA] |  |  | 3.69 | 
CCCCCCCCC(=O)ON1C(=O)COc2ccccc21 [NON-D-DIBOA] |  |  | 2.84 | 
CCCCCCCC(=O)ON1C(=O)COc2ccccc21 [OCT-D-DIBOA] |  |  | 3.35 | 
CCC(=O)ON1C(=O)COc2ccccc21 [PR-D-DIBOA] |  |  | 2.96 | 
CCC(=O)Nc1ccc(Cl)c(Cl)c1 [PROPANIL] |  |  | 3.94 | 
CCCCCCCCCCCCC(=O)ON1C(=O)COc2ccccc21 [TRIDEC-D-DIBOA] |  |  | 3.44 | 
CCCCCCCCCCC(=O)ON1C(=O)COc2ccccc21 [UNDEC-D-DIBOA] |  |  | 3.37 | 
CCCCC(=O)ON1C(=O)COc2ccccc21 [VAL-D-DIBOA] |  |  | 2.94 | 
